Measurements taken from ChEMBL document CHEMBL1201862, “PubChem BioAssay data set” (2004).
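Values below derive from 48-hour exposures of cells grown in 96-well plates, with endpoints linearly interpolated between the two concentrations bracketing the appropriate inhibition level. Here, GI50 denotes the concentration required for 50% inhibition of growth.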 The source made the active and inactive calls. Rule as the data show it: active = GI50 up to about 1.1 µM and inactive = higher.

Columns and labels:
Test in all cases: DTP human tumour cell line panel, 48 h
A498 = system: A498
ACHN = system: ACHN
EKVX = system: EKVX
HL-60 = system: HL-60
Hs-578T = system: Hs-578T
KM12 = system: KM12
M14 = system: M14
MDA-N = system: MDA-N
Malme-3M = system: Malme-3M
NCI-H23 = system: NCI-H23
NCI-H522 = system: NCI-H522
OVCAR-3 = system: OVCAR-3
RPMI-8226 = system: RPMI-8226
SF-268 = system: SF-268
SR = system: SR
SW-620 = system: SW-620
T47D = system: T47D
UACC-62 = system: UACC-62
UO-31 = system: UO-31
SK-OV-3 = system: SK-OV-3

SMILES	GI50 (A498)	GI50 (ACHN)	GI50 (EKVX)	GI50 (HL-60)	GI50 (Hs-578T)	GI50 (KM12)	GI50 (M14)	GI50 (MDA-N)	GI50 (Malme-3M)	GI50 (NCI-H23)	GI50 (NCI-H522)	GI50 (OVCAR-3)	GI50 (RPMI-8226)	GI50 (SF-268)	GI50 (SR)	GI50 (SW-620)	GI50 (T47D)	GI50 (UACC-62)	GI50 (UO-31)	GI50 (SK-OV-3)
Cc1cc2c(cc1-c1cc3c(cc1C)C(C(C)C)=C(O)C(=O)/C3=C\Nc1ccccn1)/C(=C/Nc1ccccn1)C(=O)C(O)=C2C(C)C	> 100 µM (inactive)	43.3 µM (inactive)	37.8 µM (inactive)	27.4 µM (inactive)	32 µM (inactive)	24.5 µM (inactive)	87.5 µM (inactive)	76.7 µM (inactive)	21.6 µM (inactive)	46.9 µM (inactive)	21.8 µM (inactive)	34.3 µM (inactive)	21.7 µM (inactive)	30.3 µM (inactive)	42.7 µM (inactive)	48 µM (inactive)	> 100 µM (inactive)	65 µM (inactive)	–	–
CC(=O)OCC1OC(SC2=N/C(=C\c3ccc(Br)s3)C(=O)N2CN2CCOCC2)C(OC(C)=O)C(OC(C)=O)C1OC(C)=O (stereo not drawn)	20.5 µM (inactive)	16.2 µM (inactive)	8.22 µM (inactive)	3.77 µM (inactive)	19.5 µM (inactive)	17.2 µM (inactive)	–	18 µM (inactive)	16.5 µM (inactive)	12.7 µM (inactive)	6.87 µM (inactive)	> 10 µM (inactive)	5.97 µM (inactive)	32.8 µM (inactive)	12.6 µM (inactive)	14.9 µM (inactive)	27.9 µM (inactive)	15.4 µM (inactive)	15.5 µM (inactive)	–
COc1ccc(CNc2cc(=O)n(C)c(=O)[nH]2)cc1	> 100 µM (inactive)	> 100 µM (inactive)	> 100 µM (inactive)	–	> 100 µM (inactive)	> 100 µM (inactive)	> 100 µM (inactive)	> 100 µM (inactive)	> 100 µM (inactive)	> 100 µM (inactive)	> 100 µM (inactive)	> 100 µM (inactive)	> 100 µM (inactive)	> 100 µM (inactive)	> 100 µM (inactive)	> 100 µM (inactive)	> 100 µM (inactive)	> 100 µM (inactive)	> 100 µM (inactive)	> 100 µM (inactive)
COC(=O)/C=C(\CC(=O)OC)n1nnnc1[C@@H]1C[C@H](COC(c2ccccc2)(c2ccccc2)c2ccccc2)[C@H]2OC(C)(C)O[C@H]21	> 100 µM (inactive)	> 100 µM (inactive)	54.2 µM (inactive)	> 100 µM (inactive)	68.4 µM (inactive)	> 100 µM (inactive)	> 100 µM (inactive)	> 100 µM (inactive)	> 100 µM (inactive)	–	51.6 µM (inactive)	> 100 µM (inactive)	11.1 µM (inactive)	> 100 µM (inactive)	92 µM (inactive)	> 100 µM (inactive)	20.8 µM (inactive)	–	> 100 µM (inactive)	> 100 µM (inactive)
CC(=O)O[C@H]1CC[C@@]2(C)C(=CC[C@@H]3[C@@H]2CC[C@]2(C)c4c(C)nn(-c5ccccc5)c4C[C@@H]32)C1	24 µM (inactive)	19.5 µM (inactive)	14.9 µM (inactive)	24.2 µM (inactive)	11.2 µM (inactive)	23 µM (inactive)	53.8 µM (inactive)	23.1 µM (inactive)	–	13.2 µM (inactive)	13.7 µM (inactive)	28.7 µM (inactive)	–	62.8 µM (inactive)	13 µM (inactive)	33.5 µM (inactive)	33 µM (inactive)	18.5 µM (inactive)	19.4 µM (inactive)	20.6 µM (inactive)
Nc1cc2ncnc(Nc3cccc(Br)c3)c2cn1	3.61 µM (inactive)	3.44 µM (inactive)	–	> 100 µM (inactive)	33.7 µM (inactive)	22.2 µM (inactive)	38 µM (inactive)	31 µM (inactive)	> 100 µM (inactive)	57 µM (inactive)	–	15.8 µM (inactive)	52.5 µM (inactive)	58.2 µM (inactive)	> 100 µM (inactive)	> 100 µM (inactive)	23.9 µM (inactive)	38.5 µM (inactive)	21.5 µM (inactive)	8.18 µM (inactive)
O=Cc1cccc2c1Oc1c(cccc1C(=O)O)S2	> 100 µM (inactive)	34.3 µM (inactive)	70.1 µM (inactive)	–	65.9 µM (inactive)	13.7 µM (inactive)	> 100 µM (inactive)	59.2 µM (inactive)	81.3 µM (inactive)	> 100 µM (inactive)	81.5 µM (inactive)	33.3 µM (inactive)	25.7 µM (inactive)	48.3 µM (inactive)	< 0.01 µM (active)	> 100 µM (inactive)	83 µM (inactive)	> 100 µM (inactive)	58.3 µM (inactive)	61.8 µM (inactive)
